Experimental data published in publication PMC10247784, “Physiological activation of human and mouse bitter taste receptors by bile acids” (Communications Biology, 2023).
Several values for one entry are separate records, joined by “and”; a condition that tells them apart may be missing. Equal entries are not always repeated.

Biological target: T1, human TAS2R4 (Homo sapiens, UniProt Q9NYW5)
T1 construct: expressed in transfected cells; host or cells: HEK293T-Gα16gust44
T1 sequence (Q9NYW5 1-299): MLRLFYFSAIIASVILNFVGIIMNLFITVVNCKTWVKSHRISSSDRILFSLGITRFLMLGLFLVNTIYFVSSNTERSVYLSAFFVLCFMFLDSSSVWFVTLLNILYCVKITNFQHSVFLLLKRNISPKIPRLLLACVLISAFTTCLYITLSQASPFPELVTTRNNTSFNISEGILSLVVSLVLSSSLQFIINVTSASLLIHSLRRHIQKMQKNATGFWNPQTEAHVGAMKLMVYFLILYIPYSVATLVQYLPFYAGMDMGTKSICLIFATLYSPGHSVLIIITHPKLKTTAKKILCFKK
Experiment: Calcium imaging assay (FLIPR), HEK293T-Gα16gust44 cells transfected with human TAS2R4
Assay type: cell-based
In short: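 Read-out is Fluo-4 fluorescence change (ΔF/F) after automated application of bile acids (DMSO stocks) to transiently transfected cells. Values are corrected for empty-vector cells and normalized to buffer. Dose-response from three independent experiments in duplicate; threshold concentration set at p < 0.01 versus mock.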

## C[C@H](CCC(=O)NCCS(=O)(=O)O)[C@H]1CC[C@H]2[C@@H]3[C@H](O)C[C@@H]4C[C@H](O)CC[C@]4(C)[C@H]3C[C@H](O)[C@]12C [Taurocholic Acid, taurocholic acid]
TAS2R4, bile acids, mean
  Efficacy = maximal amplitude (ΔF/F): 0.1496
TAS2R4, bile acids, single replicates, listed as TCA
  Efficacy (maximal amplitude ΔF/F), individual data points: 0.127 and 0.1657 and 0.1561
TAS2R4, conc. 0,01 mM
  Δ F/F: 0.0134
TAS2R4, conc. 0,1 mM
  Δ F/F: 0.09538
TAS2R4, conc. 0,03 mM
  Δ F/F: 0.04001
TAS2R4, conc. 0,3 mM
  Δ F/F: 0.1496
TAS2R4, conc. 0,001 mM
  Δ F/F: 0.005857
TAS2R4, conc. 0,003 mM
  Δ F/F: 0.007034
Time (s) 0
  RLU, fluorescence trace: 0 RLU
Time (s) 2
  RLU, fluorescence trace: -24.6054 RLU
Time (s) 4
  RLU, fluorescence trace: 12.8274 RLU
Time (s) 6
  RLU, fluorescence trace: 3.789 RLU
Time (s) 8
  RLU, fluorescence trace: -20.122 RLU
Time (s) 12
  RLU, fluorescence trace: 7.77 RLU
Time (s) 14
  RLU, fluorescence trace: -34.8945 RLU
Time (s) 16
  RLU, fluorescence trace: -37.677 RLU
Time (s) 18
  RLU, fluorescence trace: -48.5281 RLU
Time (s) 18.766 (TCA, TLCA: 18.782)
  RLU, fluorescence trace: 30.085 RLU
Time (s) 20.781 (TCA, TLCA: 20.782)
  RLU, fluorescence trace: 9.231 RLU
Time (s) 22.781 (TCA, TLCA: 22.782)
  RLU, fluorescence trace: 3.151 RLU
Time (s) 24.781 (TCA, TLCA: 24.782)
  RLU, fluorescence trace: 34.1327 RLU
Time (s) 26.781 (TCA, TLCA: 26.782)
  RLU, fluorescence trace: 57.6073 RLU
Time (s) 28.781 (TCA, TLCA: 28.782)
  RLU, fluorescence trace: 122.11 RLU
Time (s) 30.781 (TCA, TLCA: 30.782)
  RLU, fluorescence trace: 164.035 RLU
Time (s) 32.781 (TCA, TLCA: 32.782)
  RLU, fluorescence trace: 242.016 RLU
Time (s) 34.781 (TCA, TLCA: 34.782)
  RLU, fluorescence trace: 272.716 RLU
Time (s) 36.781 (TCA, TLCA: 36.782)
  RLU, fluorescence trace: 320.809 RLU
Time (s) 38.781 (TCA, TLCA: 38.782)
  RLU, fluorescence trace: 384.052 RLU
Time (s) 40.781 (TCA, TLCA: 40.782)
  RLU, fluorescence trace: 404.135 RLU
Time (s) 42.781 (TCA, TLCA: 42.782)
  RLU, fluorescence trace: 433.94 RLU
Time (s) 44.781 (TCA, TLCA: 44.782)
  RLU, fluorescence trace: 475.477 RLU
Time (s) 46.781 (TCA, TLCA: 46.782)
  RLU, fluorescence trace: 493.347 RLU
Time (s) 48.781 (TCA, TLCA: 48.782)
  RLU, fluorescence trace: 501.503 RLU
Time (s) 50.781 (TCA, TLCA: 50.782)
  RLU, fluorescence trace: 547.521 RLU
Time (s) 52.781 (TCA, TLCA: 52.782)
  RLU, fluorescence trace: 553.791 RLU
Time (s) 54.781 (TCA, TLCA: 54.782)
  RLU, fluorescence trace: 588.235 RLU
Time (s) 56.781 (TCA, TLCA: 56.782)
  RLU, fluorescence trace: 548.835 RLU
Time (s) 58.781 (TCA, TLCA: 58.782)
  RLU, fluorescence trace: 588.475 RLU
Time (s) 60.781 (TCA, TLCA: 60.782)
  RLU, fluorescence trace: 601.608 RLU
Time (s) 62.781 (TCA, TLCA: 62.782)
  RLU, fluorescence trace: 626.215 RLU
Time (s) 64.781 (TCA, TLCA: 64.782)
  RLU, fluorescence trace: 626.188 RLU
Time (s) 66.781 (TCA, TLCA: 66.782)
  RLU, fluorescence trace: 619.641 RLU
Time (s) 68.781 (TCA, TLCA: 68.782)
  RLU, fluorescence trace: 624.108 RLU
Time (s) 70.781 (TCA, TLCA: 70.782)
  RLU, fluorescence trace: 638.032 RLU
Time (s) 72.781 (TCA, TLCA: 72.782)
  RLU, fluorescence trace: 646.123 RLU
Time (s) 74.781 (TCA, TLCA: 74.782)
  RLU, fluorescence trace: 657.793 RLU
Time (s) 76.781 (TCA, TLCA: 76.782)
  RLU, fluorescence trace: 666.37 RLU
Time (s) 78.781 (TCA, TLCA: 78.782)
  RLU, fluorescence trace: 678.287 RLU
Time (s) 80.781 (TCA, TLCA: 80.782)
  RLU, fluorescence trace: 665.284 RLU
Time (s) 82.781 (TCA, TLCA: 82.782)
  RLU, fluorescence trace: 655.873 RLU
Time (s) 84.781 (TCA, TLCA: 84.782)
  RLU, fluorescence trace: 679.941 RLU
Time (s) 86.781 (TCA, TLCA: 86.782)
  RLU, fluorescence trace: 648.406 RLU
Time (s) 88.781 (TCA, TLCA: 88.782)
  RLU, fluorescence trace: 644.228 RLU
Time (s) 90.781 (TCA, TLCA: 90.782)
  RLU, fluorescence trace: 650.88 RLU
Time (s) 92.781 (TCA, TLCA: 92.782)
  RLU, fluorescence trace: 631.638 RLU
Time (s) 94.781 (TCA, TLCA: 94.782)
  RLU, fluorescence trace: 665.026 RLU
Time (s) 96.781 (TCA, TLCA: 96.782)
  RLU, fluorescence trace: 673.234 RLU
Time (s) 98.781 (TCA, TLCA: 98.782)
  RLU, fluorescence trace: 653.956 RLU
Time (s) 100.781 (TCA, TLCA: 100.782)
  RLU, fluorescence trace: 661.771 RLU
Time (s) 102.781 (TCA, TLCA: 102.782)
  RLU, fluorescence trace: 636.296 RLU
Time (s) 104.781 (TCA, TLCA: 104.782)
  RLU, fluorescence trace: 641.127 RLU
Time (s) 106.781 (TCA, TLCA: 106.782)
  RLU, fluorescence trace: 615.791 RLU
Time (s) 108.781 (TCA, TLCA: 108.782)
  RLU, fluorescence trace: 618.091 RLU
Time (s) 110.781 (TCA, TLCA: 110.782)
  RLU, fluorescence trace: 644.691 RLU
Time (s) 112.781 (TCA, TLCA: 112.782)
  RLU, fluorescence trace: 640.87 RLU
Time (s) 114.781 (TCA, TLCA: 114.782)
  RLU, fluorescence trace: 609.041 RLU
Time (s) 116.781 (TCA, TLCA: 116.782)
  RLU, fluorescence trace: 616.307 RLU
Time (s) 118.781 (TCA, TLCA: 118.782)
  RLU, fluorescence trace: 584.502 RLU
Time (s) 120.781 (TCA, TLCA: 120.782)
  RLU, fluorescence trace: 602.866 RLU
Time (s) 122.781 (TCA, TLCA: 122.782)
  RLU, fluorescence trace: 581.164 RLU
Time (s) 124.781 (TCA, TLCA: 124.782)
  RLU, fluorescence trace: 578.218 RLU
Time (s) 126.781 (TCA, TLCA: 126.782)
  RLU, fluorescence trace: 564.916 RLU
Time (s) 128.781 (TCA, TLCA: 128.782)
  RLU, fluorescence trace: 590.827 RLU
Time (s) 130.781 (TCA, TLCA: 130.782)
  RLU, fluorescence trace: 571.073 RLU
Time (s) 132.781 (TCA, TLCA: 132.782)
  RLU, fluorescence trace: 555.387 RLU
Time (s) 134.781 (TCA, TLCA: 134.782)
  RLU, fluorescence trace: 548.858 RLU
Time (s) 136.781 (TCA, TLCA: 136.782)
  RLU, fluorescence trace: 535.742 RLU
Time (s) 137.547
  RLU, fluorescence trace: 524.559 RLU
Time (s) 143.547
  RLU, fluorescence trace: 525.352 RLU
Time (s) 149.547
  RLU, fluorescence trace: 486.955 RLU
Time (s) 155.547
  RLU, fluorescence trace: 493.52 RLU
Time (s) 161.547
  RLU, fluorescence trace: 446.448 RLU
Time (s) 167.547
  RLU, fluorescence trace: 435.019 RLU
Time (s) 173.547
  RLU, fluorescence trace: 386.716 RLU
Time (s) 179.547
  RLU, fluorescence trace: 393.434 RLU
Time (s) 185.547
  RLU, fluorescence trace: 372.463 RLU
Time (s) 191.547
  RLU, fluorescence trace: 357.243 RLU
Time (s) 197.547
  RLU, fluorescence trace: 314.74 RLU
Time (s) 203.547
  RLU, fluorescence trace: 318.63 RLU
Time (s) 209.547
  RLU, fluorescence trace: 306.856 RLU
Time (s) 215.547
  RLU, fluorescence trace: 260.931 RLU
Time (s) 221.547
  RLU, fluorescence trace: 241.962 RLU
Time (s) 227.547
  RLU, fluorescence trace: 290.972 RLU
Time (s) 233.547
  RLU, fluorescence trace: 269.304 RLU
Time (s) 239.547
  RLU, fluorescence trace: 267.596 RLU
Time (s) 245.547
  RLU, fluorescence trace: 219.689 RLU
Time (s) 293.547
  RLU, fluorescence trace: 189.99 RLU
Time (s) 299.547
  RLU, fluorescence trace: 175.107 RLU
Time (s) 305.547
  RLU, fluorescence trace: 192.603 RLU
Time (s) 311.547
  RLU, fluorescence trace: 188.074 RLU
Time (s) 317.547
  RLU, fluorescence trace: 199.388 RLU
Time (s) 323.547
  RLU, fluorescence trace: 170.101 RLU
Time (s) 329.547
  RLU, fluorescence trace: 196.926 RLU
Time (s) 335.547
  RLU, fluorescence trace: 162.738 RLU
Time (s) 341.547
  RLU, fluorescence trace: 164.861 RLU
Time (s) 347.547
  RLU, fluorescence trace: 156.987 RLU
Time (s) 353.547
  RLU, fluorescence trace: 175.115 RLU
Time (s) 359.547
  RLU, fluorescence trace: 151.684 RLU
Lowest concentration with significantly increased fluorescence vs empty vector (p < 0.01)
  Activation threshold concentration TAS2R4: 100 µM
